Broadly, the IC50 is the concentration that gives 50% inhibition.

Molecules are shown by their SMILES. Counter-ions that a name gives are not always drawn.

Steroidogenic factor 1, sequence (Q13285 whole entry, the tested form may be a part): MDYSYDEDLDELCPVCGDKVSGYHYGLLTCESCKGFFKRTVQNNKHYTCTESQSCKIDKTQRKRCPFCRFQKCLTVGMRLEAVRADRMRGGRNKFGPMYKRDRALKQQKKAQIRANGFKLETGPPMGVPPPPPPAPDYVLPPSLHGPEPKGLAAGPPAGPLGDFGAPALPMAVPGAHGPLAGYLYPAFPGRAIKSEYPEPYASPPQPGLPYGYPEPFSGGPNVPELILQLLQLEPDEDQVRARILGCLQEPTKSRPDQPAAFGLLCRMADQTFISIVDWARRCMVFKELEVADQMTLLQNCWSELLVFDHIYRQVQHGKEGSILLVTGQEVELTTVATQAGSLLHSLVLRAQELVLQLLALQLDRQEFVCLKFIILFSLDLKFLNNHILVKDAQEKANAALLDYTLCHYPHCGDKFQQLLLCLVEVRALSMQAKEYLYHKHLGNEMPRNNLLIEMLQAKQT

The first test addresses Steroidogenic factor 1 (Homo sapiens, UniProt Q13285). The test can be described thus: inhibition of SF-1 LBD-driven luciferase – cell-based, CHO-K1, Gal4-SF-1 LBD, luciferase luminescence, counter-screen for RORA inhibitor project, dose response (AID 611).
Settings: not given
For orientation: A counterscreen serves to expose hits that act by an unwanted route or on another target.
For `CCOC(=O)N1CCC(NC(=O)C2CCCN(Cc3nc(-c4cccc(Cl)c4)oc3C)C2)CC1` (centres undefined) [4-[[1-[[2-(3-chlorophenyl)-5-methyl-oxazol-4-yl]methyl]nipecotoyl]amino]piperidine-1-carboxylic acid ethyl ester], the IC50 stood at 6.81 µM. This lies in the single-digit micromolar range.

`COc1cc(CC(NC(C)=O)C(=O)NC2CCN(c3nc(C)cc(C)c3C#N)CC2)cc(OC)c1` (centres undefined) [2-Acetylamino-N-(3'-cyano-4',6'-dimethyl-3,4,5,6-tetrahydro-2H-[1,2']bipyridinyl-4-yl)-3-(3,5-dimethoxy-phenyl)-propionamide] returned an IC50 above 99 µM.

The molecule `Nc1cccc(-c2nc3ccc(N)cc3s2)c1` [2-(3-Amino-phenyl)-benzothiazol-6-ylamine] registered a concentration for half-maximal inhibition (IC50) above 3.67 µM.

`COc1ccccc1-c1nnc2sc(-c3ccc(N(C)C)cc3)nn12` [4-[3-(2-methoxyphenyl)-[1,2,4]triazolo[3,4-b][1,3,4]thiadiazol-6-yl]-N,N-dimethyl-aniline] showed an IC50 of 3.24 µM.

Molecule `COc1ccc(-c2cc(C(F)(F)F)nc(S(C)(=O)=O)n2)cc1OC` [4-(3,4-dimethoxyphenyl)-2-methylsulfonyl-6-(trifluoromethyl)pyrimidine] displayed an IC50 of 7.15 µM.

Take `CC(=O)Nc1ccccc1OCC(=O)c1cc(C)n(Cc2cccs2)c1C` [MLS000056239]: it took 0.841 µM to reach half-maximal inhibition (IC50). Compared with the last molecule, the IC50 is about 8.5-fold lower.

With `Cc1ccc2nc(-c3ccccc3)cn2c1` [6-methyl-2-phenyl-imidazo[1,2-a]pyridine;hydrobromide], the half-maximal inhibitory concentration (IC50) was found to be 1.93 µM.

As to `Cc1cc(C)n(-c2ccc3cccc(NS(C)(=O)=O)c3n2)n1` [MLS000062301], the half-maximal inhibitory concentration (IC50) came to 4.32 µM.

On to `COCCn1c(C)cc(C(=O)CSc2nnc(C)s2)c1C` [1-[1-(2-methoxyethyl)-2,5-dimethyl-1H-pyrrol-3-yl]-2-[(5-methyl-1,3,4-thiadiazol-2-yl)thio]ethanone], for which half-maximal inhibition (IC50) was put at 3.46 µM.

With `COc1ccc(OCc2cccc(C(=O)O)c2)cc1` [3-[(4-methoxyphenoxy)methyl]benzoic acid], half-maximal inhibition (IC50) required 0.37 µM.

`O=S(=O)(c1ccccc1)N1CCN(c2cc(-c3ccccc3)nc3ncnn23)CC1` [5-phenyl-7-[4-(phenylsulfonyl)piperazin-1-yl]-[1,2,4]triazolo[1,5-a]pyrimidine] had an IC50 of 8.96 µM.

`CC1CCN(c2nc3ccc(C(=O)O)cc3s2)CC1` [2-(4-methyl-1-piperidinyl)-1,3-benzothiazole-6-carboxylic acid] gave an IC50 of 0.329 µM.

`CCc1ccc(-c2cn3nc(C)c(C)nc3n2)cc1` [6-(4-ethylphenyl)-2,3-dimethyl-imidazo[1,2-b][1,2,4]triazine] yielded an IC50 of 1.73 µM.

For the molecule `Cc1ccc(-c2nsc3c(N4CCC(C(N)=O)CC4)ncnc23)cc1` [1-(3-p-Tolyl-isothiazolo[4,5-d]pyrimidin-7-yl)-piperidine-4-carboxylic acid amide], the IC50 was 1.53 µM.

Regarding `CC(C)OCCCNc1ncnc2c1[nH]c1ccc(F)cc12`, the IC50 is 6.34 µM.

Take `Cc1ccc(-c2nc(-c3ccccc3)no2)c(Cl)c1` [5-(2-chloranyl-4-methyl-phenyl)-3-phenyl-1,2,4-oxadiazole]: half-maximal inhibition (IC50) required 3.34 µM. Against the preceding molecule, the IC50 is about 1.9-fold lower.

The molecule `CCNC(=O)CCc1nc(-c2ccc(C(C)(C)C)cc2)no1` [3-[3-(4-tert-butylphenyl)-1,2,4-oxadiazol-5-yl]-N-ethyl-propanamide] gave an IC50 of 0.0417 µM.

In turn, `O=c1cc(-c2c(F)c(F)c(F)c(F)c2F)oc2c(F)c(F)c(F)c(F)c12` [5,6,7,8-tetrafluoro-2-(2,3,4,5,6-pentafluorophenyl)-1-benzopyran-4-one] displayed an IC50 of 4.81 µM. This IC50 lies about 120-fold higher than the previous one.

`CC(C)Cn1c(N)c(C(=O)CSc2ccc3c(c2)OCCO3)c(=O)n(C)c1=O` [6-amino-5-[2-(2,3-dihydro-1,4-benzodioxin-6-ylsulfanyl)acetyl]-3-methyl-1-(2-methylpropyl)pyrimidine-2,4-dione] showed an IC50 of 5.29 µM.

For the molecule `Cc1ccnc(NC(=O)CCCOc2cc(=O)n(C)c3ccccc23)c1` [4-(1-methyl-2-oxidanylidene-quinolin-4-yl)oxy-N-(4-methylpyridin-2-yl)butanamide], 8.98 µM corresponded to half-maximal inhibition (IC50).

For the molecule `N#Cc1c(NC(=O)CSc2nc(N)cc(=O)[nH]2)sc2c1CCCCCC2` [2-[(6-amino-4-oxo-1H-pyrimidin-2-yl)sulfanyl]-N-(3-cyano-4,5,6,7,8,9-hexahydrocycloocta[b]thiophen-2-yl)acetamide], inhibition was half-maximal at 14.6 µM (IC50).

Molecule `O=C(CSc1nnnn1C1CC2CCC1C2)Nc1ccnc2ccccc12` (centres undefined) [2-[(1-bicyclo[2.2.1]hept-2-yl-1H-tetrazol-5-yl)thio]-N-4-quinolinylacetamide] came in with an IC50 of 0.444 µM. Compared with the last molecule, the IC50 is about 33-fold lower.

The molecule `Cc1ccc(-c2nnc(Nc3ccccc3)o2)cc1` [5-(4-methylphenyl)-N-phenyl-1,3,4-oxadiazol-2-amine] had a 50% inhibitory concentration (IC50) above 3.67 µM.

Regarding `CC(=O)Nc1ccc(SCC(=O)c2cc(C)n(Cc3cccs3)c2C)cc1` [MLS000058142], half-maximal inhibition (IC50) was put at 4.41 µM. That is a single-digit micromolar value.

Molecule `CC(C)(C)c1ccc(-c2noc(CCC(N)=O)n2)cc1` [3-[3-(4-tert-butylphenyl)-1,2,4-oxadiazol-5-yl]propanamide] gave an IC50 of 0.063 µM.

In turn, `O=C(Nc1nc2ccccc2[nH]1)c1ccccc1F` [N-1,3-dihydro-2H-benzimidazol-2-ylidene-2-fluorobenzamide] had a concentration for half-maximal inhibition (IC50) of 1.91 µM.

In turn, `COc1ccc2c(c1)[nH]c1c(N3CCN(Cc4ccc5c(c4)OCO5)CC3)ncnc12` [4-[4-(1,3-benzodioxol-5-ylmethyl)piperazin-1-yl]-7-methoxy-5H-pyrimido[5,4-b]indole] gave an IC50 of 7.25 µM.

Molecule `O=C(CC=Nc1ccc2c(c1)OCO2)c1ccccn1` [(Z)-3-(1,3-benzodioxol-5-ylamino)-1-(2-pyridinyl)-2-propen-1-one] came in with an IC50 of 1.5 µM.

As for `COc1ccc(C2=Nn3c(nnc3-c3ccccc3OC)SC2)cc1OC` [BMCL181297 Compound 5A], the IC50 was above 3.67 µM.

As for `Cc1oc2cc3c(C(=O)OCCN(C)C)c(C)oc3cc2c1C(=O)OCCN(C)C` [2,6-Dimethyl-benzo[1,2-b;4,5-b']difuran-3,7-dicarboxylic acid bis-(2-dimethylamino-ethyl) ester], the half-maximal inhibitory concentration (IC50) came out at 0.892 µM.

On to `COc1cccc(N2CCN(c3ncnc4c3[nH]c3ccc(F)cc34)CC2C)c1` (centres undefined) [8-fluoranyl-4-[4-(3-methoxyphenyl)-3-methyl-piperazin-1-yl]-5H-pyrimido[5,4-b]indole], for which half-maximal inhibition (IC50) was put at 1.44 µM. This IC50 lies about 1.6-fold higher than the previous one.

Molecule `Cn1c(-c2ccco2)nc2cc3ccccc3cc21` [2-(2-furanyl)-3-methylbenzo[f]benzimidazole] yielded an IC50 above 3.67 µM.

`Cc1cc(-n2c(C)cc(C(=O)CSc3ncnc4ccccc34)c2C)no1` [1-[2,5-dimethyl-1-(5-methyl-1,2-oxazol-3-yl)pyrrol-3-yl]-2-quinazolin-4-ylsulfanyl-ethanone] came in with an IC50 of 6.03 µM. In other words, the single-digit micromolar range.

As to `NCCCCCc1nnc(SCc2ccccc2Cl)o1` [5-[5-[(2-chlorobenzyl)thio]-1,3,4-oxadiazol-2-yl]pentylamine;hydrochloride], the IC50 was above 99 µM.

In turn, `Cc1ccc(-c2nnc(SCC(=O)Nc3ccccc3F)o2)cc1` [MLS000114725] yielded a half-inhibitory concentration (IC50) of 9.9 µM. In other words, the single-digit micromolar range.

Regarding `CS(=O)(=O)c1nc(-c2cccs2)cc(C(F)(F)F)n1` [MLS000044645], the IC50 came out at 6.41 µM.

`COc1ccc(C(=O)NC(=O)Nc2cc(C)ccn2)cc1` [4-methoxy-N-[(4-methyl-2-pyridyl)carbamoyl]benzamide] had an IC50 of 3.29 µM.

`COc1ccc(O)c(C(=O)CC(=O)c2ccc(F)cc2)c1` [1-(4-fluorophenyl)-3-(2-hydroxy-5-methoxy-phenyl)propane-1,3-dione] had an IC50 above 11 µM.

In turn, `c1ccc2c(c1)CCN(c1ncnc3c1[nH]c1ccccc13)C2` [SMR000039631] showed an IC50 of 2.99 µM. In other words, the single-digit micromolar range.

`Cc1ccc(-c2nc(-c3ccccn3)no2)cc1` [5-(4-methylphenyl)-3-(2-pyridinyl)-1,2,4-oxadiazole] yielded a half-inhibitory concentration (IC50) of 1.05 µM.

`CCOc1ccc(-c2cc(CCCC(=O)NCCc3ccc(OC)c(OC)c3OC)no2)cc1` [4-(5-p-phenetylisoxazol-3-yl)-N-[2-(2,3,4-trimethoxyphenyl)ethyl]butyramide] came in with a concentration for half-maximal inhibition (IC50) of 6.37 µM.

In the case of `COC(=O)C1C(=CN2CCCc3ccccc32)NC(=O)NC1c1ccc(F)cc1` (centres undefined) [6-(3,4-dihydro-2H-quinolin-1-ylmethyl)-4-(4-fluorophenyl)-2-keto-3,4-dihydro-1H-pyrimidine-5-carboxylic acid methyl ester], the IC50 worked out at 6.66 µM.

Regarding `Cc1ccc(-c2cnc(NC(=O)CCC(=O)N3CCCCC3)n2C)cc1` [4-keto-N-[1-methyl-5-(p-tolyl)imidazol-2-yl]-4-piperidino-butyramide], the concentration for half-maximal inhibition (IC50) was above 99.1 µM.

With `Cc1cc(C=Nn2cnnc2)c(C)n1-c1ccc(OCc2ccccc2F)cc1` [MLS000112180], the IC50 was found to be 7.58 µM.

Take `Cc1nnc(Sc2nc(Sc3nnc(C)s3)nc(N3CCN(C)CC3)n2)s1` [2-(4-Methyl-piperazin-1-yl)-4,6-bis-(5-methyl-[1,3,4]thiadiazol-2-ylsulfanyl)-[1,3,5]triazine]: the IC50 was 3.55 µM. Against the preceding molecule, the IC50 is about 2.1-fold lower.

The molecule `COc1cc(NS(=O)(=O)c2ccc(C)cc2)c2ncccc2c1` [SMR000071147] displayed an IC50 of 5.2 µM. This IC50 and that of the molecule before are within 1.5-fold of each other.

For the molecule `Cc1oc(-c2ccc3c(c2)OCCO3)cc1C(=O)O` [5-(2,3-dihydro-1,4-benzodioxin-6-yl)-2-methyl-3-furancarboxylic acid], the 50% inhibitory concentration (IC50) worked out at 3.06 µM. This IC50 is about 1.7-fold lower than that of the molecule before.

The molecule `O=C(Nc1nc(-c2ccccn2)cs1)c1ccc(Cl)s1` [5-chloranyl-N-(4-pyridin-2-yl-1,3-thiazol-2-yl)thiophene-2-carboxamide] registered a 50% inhibitory concentration (IC50) of 4 µM.

Turning to `c1ccc(CNc2ncnc3ccccc23)cc1` [N-benzylquinazolin-4-amine], the IC50 turned out to be 21.9 µM. Against the preceding molecule, the IC50 is about 5.5-fold higher.

The test is the same for the next values; noted with them: inactive by the depositor's call.
The molecule `Cc1ccc2[nH]c3c(N4CCN(Cc5ccc6c(c5)OCO6)CC4)ncnc3c2c1` had an IC50 of 10.2 µM.

`Fc1ccc2[nH]c3c(N4CCSCC4)ncnc3c2c1` [MLS000078401] came in with an IC50 of 10.4 µM.

In turn, `COc1cccc(OC)c1C1=NCC(=O)Nc2c1oc1ccc(Br)cc21` [9-bromanyl-5-(2,6-dimethoxyphenyl)-1,3-dihydro-[1]benzofuro[3,2-e][1,4]diazepin-2-one] had an IC50 of 15.4 µM.

Take `Cc1nc2sccn2c1-c1csc(NCc2ccccc2)n1` [4-(6-methyl-5-imidazo[2,1-b]thiazolyl)-N-(phenylmethyl)-2-thiazolamine]: the 50% inhibitory concentration (IC50) is 11.1 µM.

In turn, `CS(=O)(=O)c1nc(-c2ccco2)cc(C(F)(F)F)n1` [MLS000044646] had a 50% inhibitory concentration (IC50) of 10.8 µM.

The values are drawn from BindingDB's records for doi:10.7270/Q2PR7TCX (The Scripps Research Institute Molecular Screening Center, 2007).
